This assay concerns HEK293T-Gα16gust44 cells transfected with empty vector (mock). Put plainly: Calcium imaging assay (FLIPR), empty vector control (mock). Type of assay: cell-based. The method, then:
This set of bile acids was chosen because of their commercial availability in high purities, their diversity within the class of bile acids and their previous detection and quantitation in human blood. Stock solutions were prepared in DMSO.
As basal growth medium for the HEK293T-Gα16gust44 cell line[17],[59] served Dulbecco’s modified eagle medium (DMEM) (Thermo Fisher Scientific, Darmstadt, Germany) supplemented with 10 % fetal bovine serum (Sigma-Aldrich, Steinheim, Germany), 2 mM L-glutamine (Sigma-Aldrich, Steinheim, Germany), 100 units/ml penicillin (Sigma Aldrich, Steinheim, Germany) and 100 µg/ml streptomycin (Sigma Aldrich, Steinheim, Germany). Growth conditions were 37 °C, 5 % CO2 and saturated air-humidity[60].
HEK293T-Gα16gust44 cells were seeded on poly-D-lysine (10 µg/ml) coated 96-well plates to reach a confluence of 40-60 % the next day. For transient transfection 150 ng of plasmid DNA containing the receptor of interest and 0.3 µl lipofectamine 2000 (Thermo Fisher Scientific, Darmstadt, Germany) per well were used and transfection took place according to the manual of lipofectamine 2000. […] The empty vector DNA (mock) was transfected as negative control[14],[41].
Cells were loaded using the calcium-sensitive fluorescent dye Fluo-4-AM (Abcam, Cambridge, Great Britain) in the presence of 2.5 mM probenecid (Sigma-Aldrich, Steinheim, Germany) the day after transfection[13],[41]. 1 h after loading, cells were washed with C1 buffer using a BioTek Cell Washer, incubated in the dark for half an hour and washed again. For automated agonist application and measurement of fluorescence changes, a FLIPR^TETRA device (Molecular Devices, San José, United States) was used. Viability of cells was tested by application of 100 nM Somatostatin 14 (Bachem, Bubendorf, Switzerland)[42].
Measured data were negative control corrected by subtracting the signal of the mock-transfected cells and exported to Microsoft Excel using the FLIPR software ScreenWorks 4.2. In Microsoft Excel software, standardization of maximum fluorescence intensities to the basal fluorescence and normalization to the buffer-only control was done to calculate the relative fluorescence changes (ΔF/F).
Initial screening experiments performed in duplicate wells were confirmed by at least one replication and representative traces were selected for display. All dose-response relationships were determined by three independent experiments (biological replicates) performed in duplicates (technical replicates). Threshold concentrations, defined as lowest substance concentrations leading to statistically significant elevated fluorescence changes in receptor-transfected cells compared with empty vector-transfected cells, were determined using SigmaPlot with Student’s t-test to evaluate statistical significance (p < 0.01).

Where [1] appears, read: conc. 0,01 mM, Mock (sheet TAS2R1).
The mark [2] stands for this setting: conc. 0,00003 mM, Mock (sheet TAS2R1).
The mark [3] stands for this setting: conc. 0,0001 mM, Mock (sheet TAS2R1).
Setting [4] is: conc. 0,0003 mM, Mock (sheet TAS2R1).
Setting [5] is: conc. 0,001 mM, Mock (sheet TAS2R1).
The mark [6] stands for this setting: conc. 0,003 mM, Mock (sheet TAS2R1).
Setting [7] is: Mock (sheet Tas2r123), conc. 0,01 mM.
Setting [8] is: Mock (sheet Tas2r123), conc. 0,03 mM.
[9] abbreviates: Mock (sheet Tas2r123), conc. 0,0001 mM.
[10] abbreviates: Mock (sheet Tas2r123), conc. 0,0003 mM.
The mark [11] stands for this setting: Mock (sheet Tas2r123), conc. 0,001 mM.
Where [12] appears, read: Mock (sheet Tas2r123), conc. 0,003 mM.
Where [13] appears, read: Mock, sheet TAS2R4, conc. 0,01 mM.
[14] abbreviates: Mock, sheet TAS2R4, conc. 0,03 mM.
The mark [15] stands for this setting: Mock, sheet TAS2R4, conc. 0,0003 mM.
The mark [16] stands for this setting: Mock, sheet TAS2R4, conc. 0,001 mM.
The mark [17] stands for this setting: Mock, sheet TAS2R4, conc. 0,003 mM.
Setting [18] is: Mock, sheet Tas2r105, conc. 0,01 mM.
[19] abbreviates: Mock, sheet Tas2r105, conc. 0,00003 mM.
Where [20] appears, read: Mock, sheet Tas2r105, conc. 0,0001 mM.
[21] abbreviates: Mock, sheet Tas2r105, conc. 0,0003 mM.
Where [22] appears, read: Mock, sheet Tas2r105, conc. 0,001 mM.
[23] abbreviates: Mock, sheet Tas2r105, conc. 0,003 mM.
Where [24] appears, read: conc. 0,03 mM, Mock (sheet TAS2R1).

The values below come from PMC10247784, “Physiological activation of human and mouse bitter taste receptors by bile acids” (Communications Biology, 2023).

For `C[C@H](CCC(=O)O)[C@H]1CC[C@H]2[C@@H]3[C@H](O)C[C@@H]4C[C@H](O)CC[C@]4(C)[C@H]3CC[C@]12C` [Chenodeoxycholic Acid, chenodeoxycholic acid], the “Δ F/F” value is listed as -0.007814 (Mock, sheet TAS2R14, conc. 0,01 mM); -0.004111 (Mock, sheet TAS2R14, conc. 0,03 mM); -0.01383 (Mock, sheet TAS2R14, conc. 0,00003 mM); -0.0179 (Mock, sheet TAS2R14, conc. 0,0001 mM); -0.01292 (Mock, sheet TAS2R14, conc. 0,0003 mM); -0.005111 (Mock, sheet TAS2R14, conc. 0,001 mM). In addition, the “Δ F/F” value is recorded as -0.006729 (Mock, sheet TAS2R14, conc. 0,003 mM); -0.001385 under setting [1]; -0.0006042 under setting [2]; -0.001709 under setting [3]; -0.001427 under setting [4]; -0.001629 under setting [5]. Further, the “Δ F/F” value under setting [6] is on record as -0.001467.

On to `C[C@H](CCC(=O)O)[C@H]1CC[C@H]2[C@@H]3CC[C@@H]4C[C@H](O)CC[C@]4(C)[C@H]3C[C@H](O)[C@]12C` [Deoxycholic Acid, deoxycholic acid], for which the “Δ F/F” value is, setting by setting: under setting [7], -0.0008829; under setting [8], -0.0003165; under setting [9], 0.00132; under setting [10], -0.002173; under setting [11], -0.000706; under setting [12], -0.0005125. The “Δ F/F” value under setting [13] is 0.0004181; the “Δ F/F” value under setting [14] was found to be 0.001864; the “Δ F/F” value under setting [15] is 0.0005365; the “Δ F/F” value under setting [16] was 0.0001116; the “Δ F/F” value under setting [17] is listed as 0.0001746; the “Δ F/F” value under setting [18] is -0.01259. The “Δ F/F” value by setting is: (Mock, sheet Tas2r105, conc. 0,03 mM) -0.004122; under setting [19], -0.01446; under setting [20], -0.0178; under setting [21], -0.01787; under setting [22], -0.0148; under setting [23], -0.01449. Moreover, the “Δ F/F” value is listed as -0.006813 (Mock, sheet Tas2r108, conc. 0,01 mM); -0.0003425 (Mock, sheet Tas2r108, conc. 0,03 mM); -0.01113 (Mock, sheet Tas2r108, conc. 0,00003 mM); -0.01772 (Mock, sheet Tas2r108, conc. 0,0001 mM); -0.01462 (Mock, sheet Tas2r108, conc. 0,0003 mM); -0.01703 (Mock, sheet Tas2r108, conc. 0,001 mM). The “Δ F/F” value reads like this: (Mock, sheet Tas2r108, conc. 0,003 mM) -0.01481; under setting [1], -0.0008034; under setting [24], -0.0003771; under setting [4], -0.002238; under setting [5], -0.001593; under setting [6], -0.0004081.

As for `C[C@H](CCC(=O)O)[C@H]1CC[C@H]2[C@@H]3CC[C@@H]4C[C@H](O)CC[C@]4(C)[C@H]3CC[C@]12C` [Lithocholic Acid, lithocholic acid], the “Δ F/F” value is, setting by setting: under setting [18], -0.0002988; (Mock, sheet Tas2r105, conc. 0,00001 mM) -0.01431; under setting [19], -0.01708; under setting [20], -0.01503; under setting [21], -0.01339; under setting [22], -0.01175. Also, the “Δ F/F” value is, setting by setting: under setting [23], -0.00295; under setting [2], -7.475e-5; under setting [3], -0.001646; under setting [4], -0.002463; under setting [5], -0.001163; under setting [6], -0.0001447.

Regarding `C[C@H](CCC(=O)O)[C@H]1CC[C@H]2[C@@H]3[C@@H](O)C[C@@H]4C[C@H](O)CC[C@]4(C)[C@H]3CC[C@]12C` [Ursodeoxycholic Acid, ursodeoxycholic acid], the “Δ F/F” value under setting [7] is on record as -0.001066; the “Δ F/F” value under setting [8] was -0.001504; the “Δ F/F” value under setting [9] is -0.001573; the “Δ F/F” value under setting [10] is reported as -0.001292; the “Δ F/F” value under setting [11] is -0.005211; the “Δ F/F” value under setting [12] is on record as -0.001793. In addition, the “Δ F/F” value runs as follows: under setting [13], -0.0004613; under setting [14], -0.0005491; (Mock, sheet TAS2R4, conc. 0,00003 mM) -0.0004806; (Mock, sheet TAS2R4, conc. 0,0001 mM) -0.001738; under setting [15], 0.0005593; under setting [16], -0.001147. Also, the “Δ F/F” value under setting [17] was -0.0007234; the “Δ F/F” value under setting [1] is 0.000483; the “Δ F/F” value under setting [24] was -0.001233; the “Δ F/F” value under setting [3] is reported as 0.0008084; the “Δ F/F” value under setting [4] was -0.0004379; the “Δ F/F” value under setting [5] is listed as -0.001051. Moreover, under setting [6], the “Δ F/F” value is listed as -0.001084.
